This note sets out measurements from patent US9204653B2, “5-fluoro pyrimidine derivatives” (DOW AGROSCIENCES LLC, priority 2008, dated 2015).

Like-named read-outs stand apart in the source and are kept apart here.

Test [1] concerns Mycosphaerella graminicola; Anamorph: Septoria tritici; Bayer Code SEPTTR. In words: Leaf blotch of wheat, foliar fungicide treatment, one day protectant (1DP) or three day curative (3DC). It is filed as in vivo, Septoria tritici on wheat plants (variety Yuma). Conditions: Zymoseptoria tritici.
Test [2] relates to Venturia inaequalis; Bayer Code VENTIN. Nature of the test: Apple scab. In kind it is in vivo. Conditions: 24 h, % disease control rating, one day protectant; for pest or weed control at 25 ppm: read-out: VENTIN 1 DP 25 ppm; for pest or weed control at 75 ppm: read-out: VENTIN 1 DP 75 ppm.
The mark [3] stands for this setting: 24 h, one day protectant (1DP), 25 ppm, percent disease control rating, read-out: SETTTR 1DP 25 ppm.
Setting [4] is: 24 h, one day protectant (1DP), percent disease control rating, read-out: SEPTTR 1DP 100 ppm.
The mark [5] stands for this setting: 72 h, three day curative (3DC), 25 ppm, percent disease control rating, read-out: SEPTTR 3DC 25 ppm.
Where [6] appears, read: 72 h, three day curative (3DC), percent disease control rating, read-out: SEPTTR 3DC 100 ppm.
Where [7] appears, read: 24 h, one day protectant (1DP), 25 ppm (first 1DP column), percent control rating, read-out: SETTTR 1DP 25 ppm.
[8] abbreviates: 24 h, one day protectant (1DP), 25 ppm as printed (second 1DP column), percent control rating, read-out: SETTTR 1DP 25 ppm.
Where [9] appears, read: 72 h, three day curative (3DC), 25 ppm, percent control rating, read-out: SEPTTR 3DC 25 ppm.
Setting [10] is: 72 h, three day curative (3DC), percent control rating, read-out: SEPTTR 3DC 100 ppm.
The mark [11] stands for this setting: 24 h, one day protectant (1DP), 25 ppm (first 1DP column), percent disease control rating, read-out: SETTTR 1DP 25 ppm.
The mark [12] stands for this setting: 24 h, one day protectant (1DP), 25 ppm as printed (second 1DP column), percent disease control rating, read-out: SETTTR 1DP 25 ppm.

As for `CC(Oc1ncc(F)c(N)n1)c1ccc(F)cc1` (centres unmarked) [Compound 3, 5-Fluoro-2-[1-(4-fluorophenyl)ethoxy]pyrimidin-4-ylamine], the figures for the pest or weed control at 25 ppm in test [1] (setting [3]), in test [1] (setting [5]) and in test [2] were 76 to 100%, 76 to 100% and 0 to 25%, respectively. For the same compound, the pest or weed control at 100 ppm in test [1] (setting [4]) and in test [1] (setting [6]) was 76 to 100% in each case. Further, the pest or weed control at 75 ppm in test [2] fell in the range of 76 to 100%.

Consider `Nc1nc(OCc2cccs2)ncc1F` [Compound 5, 5-Fluoro-2-(thiophen-2-ylmethoxy)-pyrimidin-4-ylamine], for which the pest or weed control at 25 ppm in test [1] (setting [3]), in test [1] (setting [5]) and in test [2] was 76 to 100% each time. Also, the pest or weed control at 100 ppm in test [1] (setting [4]) and in test [1] (setting [6]) was 76 to 100% in each case. The pest or weed control at 75 ppm in test [2] is 76 to 100%.

Consider `CN(C)/C=N/c1nc(OCc2ccc(F)cc2)ncc1F` [Compound 20, N-[5-Fluoro-2-(4-fluorobenzyloxy)pyrimidin-4-yl]-N,N dimethyl-formamidine], for which the pest or weed control at 25 ppm lay in the range of 76 to 100% in test [1] (setting [3]), 76 to 100% in test [1] (setting [5]) and 51 to 75% in test [2]. Moreover, the pest or weed control at 100 ppm in test [1] (setting [4]) and in test [1] (setting [6]) was 76 to 100% each time. Besides, the pest or weed control at 75 ppm in test [2] was 76 to 100%.

With `COc1cccc(COc2ncc(F)c(N)n2)c1` [Compound 35], the pest or weed control at 25 ppm in test [1] (setting [3]), in test [1] (setting [5]) and in test [2] was 76 to 100% each time. In addition, the pest or weed control at 100 ppm in test [1] (setting [4]) and in test [1] (setting [6]) was 76 to 100% in each case. Besides, the pest or weed control at 75 ppm in test [2] lay in the range of 76 to 100%.

In the case of `Nc1nc(OCc2ccccc2)ncc1F` [Compound 46], the pest or weed control at 25 ppm in test [1] (setting [3]), in test [1] (setting [5]) and in test [2] was 76 to 100% throughout. The pest or weed control at 100 ppm in test [1] (setting [4]) and in test [1] (setting [6]) was 76 to 100% in each case. In test [2], the pest or weed control at 75 ppm was 76 to 100%.

`COc1ccccc1S(=O)(=O)Nc1nc(O)ncc1F` [Compound 1102]: the pest or weed control at 25 ppm is 0 to 25% in test [1] (setting [7]), 0 to 25% in test [1] (setting [8]) and 26 to 50% in test [1] (setting [9]). Further, in test [1] (setting [10]), the pest or weed control at 100 ppm lay within 26 to 50%.

For `O=S(=O)(Nc1nc(O)ncc1F)c1ccccc1Cl` [Compound 1103], the pest or weed control at 25 ppm in test [1] (setting [7]), in test [1] (setting [8]) and in test [1] (setting [9]) was 0 to 25% in each case. For the same compound, the pest or weed control at 100 ppm in test [1] (setting [10]) fell in the range of 0 to 25%.

In the case of `O=S(=O)(Nc1nc(O)ncc1F)C1CC1` [Compound 1104], the pest or weed control at 25 ppm in test [1] (setting [7]), in test [1] (setting [8]) and in test [1] (setting [9]) was 0 to 25% throughout. Besides, the pest or weed control at 100 ppm in test [1] (setting [10]) fell in the range of 0 to 25%.

As to `CCS(=O)(=O)Nc1nc(O)ncc1F` [Compound 1105], the pest or weed control at 25 ppm in test [1] (setting [7]), in test [1] (setting [8]) and in test [1] (setting [9]) was 0 to 25% in each case. Also, in test [1] (setting [10]), the pest or weed control at 100 ppm was in the range of 0 to 25%.

As to `COc1nn(C)c(C(F)(F)F)c1S(=O)(=O)Nc1nc(O)ncc1F` [Compound 1106], the pest or weed control at 25 ppm in test [1] (setting [7]), in test [1] (setting [8]) and in test [1] (setting [9]) was 0 to 25% each time. Moreover, in test [1] (setting [10]), the pest or weed control at 100 ppm was 0 to 25%.

As for `O=S(=O)(Nc1nc(OCc2cccs2)ncc1F)c1ccccc1` [Compound 1107], the pest or weed control at 25 ppm in test [1] (setting [7]), in test [1] (setting [8]) and in test [1] (setting [9]) was 0 to 25% throughout. Also, the pest or weed control at 100 ppm in test [1] (setting [10]) lay in the range of 0 to 25%.

For `C/C(=N\Nc1nc(O)ncc1F)c1ccc(Br)cc1` [Compound 1108], the pest or weed control at 25 ppm in test [1] (setting [7]), in test [1] (setting [8]) and in test [1] (setting [9]) was 0 to 25% each time. For the same compound, the pest or weed control at 100 ppm in test [1] (setting [10]) fell in the range of 0 to 25%.

Take `C=CCOc1ncc(F)c(/N=N/c2cc(C)ccc2C)n1` [Compound 1109]: the pest or weed control at 25 ppm in test [1] (setting [7]), in test [1] (setting [8]) and in test [1] (setting [9]) was 0 to 25% in each case. Moreover, the pest or weed control at 100 ppm in test [1] (setting [10]) lay in the range of 0 to 25%.

On to `COc1ncc(F)c(/N=N/c2ccccc2Cl)n1` [Compound 1110], for which the pest or weed control at 25 ppm in test [1] (setting [7]), in test [1] (setting [8]) and in test [1] (setting [9]) was 0 to 25% in each case. For the same compound, the pest or weed control at 100 ppm in test [1] (setting [10]) was 0 to 25%.

Consider `Oc1ncc(F)c(N/N=C/c2ccco2)n1` [Compound 1112], for which the pest or weed control at 25 ppm in test [1] (setting [7]), in test [1] (setting [8]) and in test [1] (setting [9]) was 0 to 25% in each case. Besides, in test [1] (setting [10]), the pest or weed control at 100 ppm was 26 to 50%.

In the case of `CC(C)(C)C(=O)OCOc1ncc(F)c(NC=O)n1` [Compound 1113], the pest or weed control at 25 ppm in test [1] (setting [7]), in test [1] (setting [8]) and in test [1] (setting [9]) was 76 to 100% each time. Besides, in test [1] (setting [10]), the pest or weed control at 100 ppm is 76 to 100%.

As for `C/C(=N\Oc1ncc(F)c(N)n1)C(F)(F)F` [Compound 1114], the pest or weed control at 25 ppm in test [1] (setting [7]) fell in the range of 0 to 25%; in test [1] (setting [8]), 0 to 25%; in test [1] (setting [9]) it was 26 to 50%. Besides, the pest or weed control at 100 ppm in test [1] (setting [10]) was in the range of 76 to 100%.

In the case of `CCOCNc1nc(O)ncc1F` [Compound 1115], the pest or weed control at 25 ppm lay within 26 to 50% in test [1] (setting [7]), 76 to 100% in test [1] (setting [8]) and 26 to 50% in test [1] (setting [9]). Moreover, the pest or weed control at 100 ppm in test [1] (setting [10]) lay within 76 to 100%.

On to `Oc1ncc(F)c(N/N=C/c2ccccc2Cl)n1` [Compound 1118], for which the pest or weed control at 25 ppm in test [1] (setting [7]), in test [1] (setting [8]) and in test [1] (setting [9]) was 0 to 25% throughout. Besides, the pest or weed control at 100 ppm in test [1] (setting [10]) lay within 0 to 25%.

Turning to `CC(C)(C)C(=O)OCOc1ncc(F)c(N)n1` [Compound 1119], the pest or weed control at 25 ppm in test [1] (setting [7]), in test [1] (setting [8]) and in test [1] (setting [9]) was 76 to 100% throughout. For the same compound, the pest or weed control at 100 ppm in test [1] (setting [10]) lay within 76 to 100%.

On to `COc1ncc(F)c(NNC(=O)Cc2ccccc2)n1` [Compound 1120], for which the pest or weed control at 25 ppm in test [1] (setting [7]), in test [1] (setting [8]) and in test [1] (setting [9]) was 0 to 25% in each case. Also, the pest or weed control at 100 ppm in test [1] (setting [10]) lay in the range of 0 to 25%.

`COc1ncc(F)c(NNC(=O)c2ccc(Cl)cc2)n1` [Compound 1121]: the pest or weed control at 25 ppm in test [1] (setting [7]), in test [1] (setting [8]) and in test [1] (setting [9]) was 0 to 25% each time. In addition, the pest or weed control at 100 ppm in test [1] (setting [10]) was 0 to 25%.

As to `C=CCOc1ncc(F)c(NNC(=O)C=C(C)C)n1` [Compound 1123], the pest or weed control at 25 ppm in test [1] (setting [7]), in test [1] (setting [8]) and in test [1] (setting [9]) was 0 to 25% throughout. In addition, the pest or weed control at 100 ppm in test [1] (setting [10]) was in the range of 0 to 25%.

With `C=CCOc1ncc(F)c(NNC(=O)c2ccncc2)n1` [Compound 1124], the pest or weed control at 25 ppm in test [1] (setting [7]), in test [1] (setting [8]) and in test [1] (setting [9]) was 0 to 25% in each case. In addition, the pest or weed control at 100 ppm in test [1] (setting [10]) lay within 0 to 25%.

For the compound `CC(=O)OCOc1ncc(F)c(NC=O)n1` [Compound 1125], the pest or weed control at 25 ppm in test [1] (setting [7]), in test [1] (setting [8]) and in test [1] (setting [9]) was 76 to 100% in each case. For the same compound, the pest or weed control at 100 ppm in test [1] (setting [10]) lay within 76 to 100%.

As for `O=CNc1nc(OCOC(=O)C2CCCC2)ncc1F` [Compound 1126], the pest or weed control at 25 ppm in test [1] (setting [7]), in test [1] (setting [8]) and in test [1] (setting [9]) was 76 to 100% throughout. Moreover, the pest or weed control at 100 ppm in test [1] (setting [10]) is 76 to 100%.

As for `CSCOc1ncc(F)c(/N=C/N(C)C)n1` [Compound 1127], the pest or weed control at 25 ppm in test [1] (setting [7]), in test [1] (setting [8]) and in test [1] (setting [9]) was 76 to 100% throughout. In addition, in test [1] (setting [10]), the pest or weed control at 100 ppm is 76 to 100%.

For the compound `COc1ncc(F)c(N(NC(=O)c2ccc(Cl)cc2)C(=O)c2ccc(Cl)cc2)n1` [Compound 1128], the pest or weed control at 25 ppm in test [1] (setting [7]), in test [1] (setting [8]) and in test [1] (setting [9]) was 0 to 25% in each case. Moreover, the pest or weed control at 100 ppm in test [1] (setting [10]) fell in the range of 0 to 25%.

`Cc1ccc(COc2ncc(F)c(NC#N)n2)cc1` [Compound 1130]: the pest or weed control at 25 ppm in test [1] (setting [11]) was in the range of 0 to 25%; in test [1] (setting [12]) it was 0 to 25%; in test [1] (setting [5]), 26 to 50%. In addition, the pest or weed control at 100 ppm in test [1] (setting [6]) was in the range of 0 to 25%.

On to `CCN(/C=N/c1nc(O)ncc1F)CC` [Compound 1131], for which the pest or weed control at 25 ppm in test [1] (setting [11]), in test [1] (setting [12]) and in test [1] (setting [5]) was 76 to 100% throughout. Moreover, the pest or weed control at 100 ppm in test [1] (setting [6]) lay within 76 to 100%.

Turning to `O=S(=O)(Cc1ccccc1)Nc1nc(O)ncc1F` [Compound 1132], the pest or weed control at 25 ppm in test [1] (setting [11]) fell in the range of 51 to 75%; in test [1] (setting [12]) it was 51 to 75%; in test [1] (setting [5]), 76 to 100%. Further, in test [1] (setting [6]), the pest or weed control at 100 ppm is 76 to 100%.
